Results: patent US5589472A, “Diindolo compounds and pharmaceutical compositions containing them” (priority 1995, dated 1996)
Where two headings read alike, the source gives them in different places.

Legend:
[1] = target: Protein Kinase C ("PKC"); assay: Protein Kinase C (PKC) in vitro inhibition (histone III-S phosphorylation); assay type: biochemical; settings: partially purified rat brain PKC, 5 μM ATP, 23° C., 15 minutes
Procedure: A. Protein Kinase C ("PKC") Protocol
Protein Kinase C (PKC) was partially purified from rat brain by chromatography on DEAE-Sephacel according to Shearman et al, Methods in Enzymology […] (1989) and Bishop et al, Biochemical Pharmacology 40:2129-2135 (1990)which are hereby incorporated by reference. PKC was assayed in a reaction mixture (0.25 mL total volume) containing: 20 mM Tris-HCl (pH 7.5); 200 μg/mL histone III-S 10 mM MgCl2; 5 μM [γ-^32 ] ATP (4×10^6 cpm/nmol); 200 μM CaCl2; 32 μg/mL phosphatidylserine; 1.6 μg/mL 1-oleoyl-2-acetyl glycerol and various concentrations of compounds of formula I of the invention were added from stock solutions in dimethylsulfoxide (DMSO). The final concentration of DMSO in the reaction was 2%. Reactions were started by addition of approximately 7 μg of partially purified PKC and allowed to proceed at 23° C. for 15 minutes. Reactions were terminated by addition of 1 mL of ice-cold 15% trichloracetic acid and 1 mL of cold 0.5 mg/mL bovine serum albumin to precipitate the histone III-S substrate. After 10 minutes on ice, precipitated phosphoproteins were collected on Whatman GF/C filters using a Brandel cell harvester. Filters were placed in scintillation vials with 5 mL of Ready Safe scintillation cocktail and radioactivity trapped on the filter was quantitated by liquid scintillation counting. Percent inhibition of PKC activity was calculated relative to the activity observed in the DMSO controls.

[2] = tested on: Superoxide generation in human neutrophils; assay: Neutrophil test: inhibition of superoxide generation in human neutrophils; assay type: cell-based; settings: 0.25 h, SO release induced by fMLP (100 nM) or PMA (100 nM), stimulus not stated, 15 minutes at 37° C.
Description: Inhibition of Superoxide Generation in Human Neutrophils
One of the histological changes which occurs in psoriasis is infiltration of neutrophils into epidermis and dermis. Superoxide (SO) generation by neutrophils causes oxidative tissue damage during inflammatory processes. PKC plays an essential role in SO release in neutrophils. Formyl peptides (fMLP), important chemoattractants involved in cell recruitment to local inflammatory sites, promote the release of SO anion. The tumor promoting phorbol ester, phorbol-12 myristate-13-acetate (PMA), also induces SO release.
Neutrophils were prepared from human peripheral blood. SO release was induced by fMLP (100 nM) or PMA (100 nM) and measured as SO dismutase-inhibitable reduction of cytochrome c. Preincubation of the compound tested with 3-5×10^6 cells was for 15 minutes in the presence of cytochalasin B ([…]) before addition of the stimulant, fMLP or PMA. 15 minutes after stimulation at 37° C., the reaction was stopped. The quantity of SO anion release was determined as the difference between the absorbance at 550 nm in the presence and absence of SO dismutase.
Antiinflammatory activity of the compounds of the invention was determined by use of the processes set forth in the following literature which is hereby incorporated by reference. Fischer et al Carcinogenesis 11:[…]; and Gupta et al Soc. Inv. Dermotol 91:5, 486-491, 1988 and Nakadate et al J. Pharmacolo. 38 161-168,(1985); and Viaje et al Cancer Res. 37,1530-1536, 1977.

[3] = tested on: Mouse skin; assay: Mouse Skin Assay (TPA-induced blister formation); assay type: in vivo; settings: compound in acetone (25 μl), then TPA (12.5 μl); evaluated 18 hours after treatment
Procedure: Mice were treated first with compounds dissolved in acetone (25 μl), and then 30 seconds with TPA (12.5 μl). Blister formation was evaluated 18 hours after treatment. Each mouse was scored on a scale of 1-4 where 4 equals presence of a complete blister, 3 equals slight reduction in blister formation, 2 equals a 50% reduction in blister formation and 1 equals a complete absence of blisters.

[4] = tested on: HT1080 human fibrosarcoma cells; assay: Tumor Cell Invasion Assay (Matrigel); assay type: cell-based; settings: HT-1080, @ 45 μg/mL, 5 hours at 37° C.
Procedure: Tumor Cell Invasion Assay
The cell invasion assay quantitates the ability of malignant cells to invade a reconstituted basement membrane matrix. The assay is performed essentially as described in the two articles which are cited at the end of this sentence and which are herein incorporated by reference. Kramer et al Invasion of reconstituted basement membrane matrix by metastatic tumor cells. Cancer Res. 46: […]; and Albini et al A Rapid in vitro assay for quantitating the invasive potential of tumor cells. Cancer Res. 3239-3245, 198. Modifications were made to permit evaluation of pharmacologic effectors in this system and to increase screening throughput.
Polyvinylpyrrolidone-free polycarbonate filters (25×80 mm; 8 μm pore size (Nucleopore, Pleasantan, Calif.) were coated with 100 μg human fibronectin (Boehringer-Mannheim Corp., Indianapolis, Ind.) for 1 hour, permitted to air dry 5 to 10 minutes, and then coated overnight with Matrigel (500 μg/filter; Collaborative Research, Bedford, Mass.). Filters were then rehydrated with serum-free DMEM and assembled into 48-microwell chemotaxis chambers (Neuroprobe, Cabin Johbn, Md.). See Blood et al Identification of a tumor cell receptor for VGVAPG, an elastin-derived chemotactic peptide. J. Cell Biol. 107:1987-1994, 1988 which is herein incorporated by reference. Compounds tested were placed in upper wells of the chambers with HT1080 human fibrosarcoma cells (3.5×10^4 cells/well). For primary screens the final concentration of compounds was 45 μg/ml.
Chambers were incubated for 5 hours at 37° C. in a 5% CO2 humidified atmosphere. After incubation chambers were disassembled and the filters were fixed and stained with Diff-Quik reagents (Baxter Scientific, McGaw Park, Ind.). […] The filter was then mounted between 2 glass slides and tumor cells that had invaded the Matrigel barrier in each microwell were quantitated as "% area covered by cells" with a Cue-2 Image Analysis System (Olympus Corp., Lake Success, N.Y.). When assayed under these conditions HT1080 cells (with or without Dimethylsulfoxide (DMSO) as a vehicle control) typically invade such that 34-40% surface is covered by cells and an invasion to this degree is defined as 100% invasion for the purposes of this test. Effects of compounds on the invasion are expressed as % inhibition based on the value obtained with vehicle control.

[5] = read-out: IN VITRO INHIBITION OF PKC IC50 (unit indicated in cell)
[6] = read-out: IN VITRO INHIBITION OF PKC IC50 (nanomolar) except where otherwise indicated

Row | Structure (SMILES) | IC50 [1, 5] | IC50 [1, 6] | IC50 [2] | Mouse Skin (active/inactive by visual evaluation of blister formation) [3] | inhibition at 45 µg/mL [4]
1 | N=C1NC(=O)c2c1c1c3ccccc3n3c1c1c2c2ccccc2n1CN(Cc1ccccc1)C3 [Compound 1] | > 5000 nM | – | – | – | –
2 | O=C1NC(=O)c2c1c1c3ccccc3n3c1c1c2c2ccccc2n1CS(=O)(=O)C3 [Compound 26] | – | 2 nM | 1600 nM | inactive | –
3 | O=C(O)CN1Cn2c3ccccc3c3c4c(c5c6ccccc6n(c5c32)C1)C(=O)NC4=O [Compound 7] | – | 480 nM | – | – | 0%
4 | O=C1NCc2c1c1c3ccccc3n3c1c1c2c2ccccc2n1CSC3 [Compound 19] | – | 7 nM | – | – | 100%
5 | CN1Cn2c3ccccc3c3c4c(c5c6ccccc6n(c5c32)C1)C(=O)NC4=N [Compound 5] | – | 150 nM | – | – | 46%
6 | O=C1NCc2c1c1c3ccccc3n3c1c1c2c2ccccc2n1CS(=O)(=O)C3 [Compound 23] | – | 5 nM | 900 nM | active | 57%
7 | O=C1NC(=O)c2c1c1c3ccccc3n3c1c1c2c2ccccc2n1CN(CCO)C3 [Compound 10] | – | 17 nM | – | – | 72%
8 | COCCOCCOCCN1Cn2c3ccccc3c3c4c(c5c6ccccc6n(c5c32)C1)C(=O)NC4=O [Compound 12] | – | ~100 nM | – | – | 20%
9 | CN(C)CCN1Cn2c3ccccc3c3c4c(c5c6ccccc6n(c5c32)C1)C(=O)NC4=O [Compound 9] | – | 120 nM | – | – | 52%
10 | C[C@@H]1n2c3ccccc3c3c4c(c5c6ccccc6n(c5c32)[C@H](C)S1(=O)=O)C(=O)NC4=O [cis-25] | – | 2.4 nM | – | – | –
11 | CN1Cn2c3ccccc3c3c4c(c5c6ccccc6n(c5c32)C1)C(=O)NC4 [Compound 13] | – | 90 nM | – | – | 26%
12 | COCCOCCOCCN1Cn2c3ccccc3c3c4c(c5c6ccccc6n(c5c32)C1)C(=O)NC4=N [Compound 11] | – | ~500 nM | – | – | 42%
13 | CN(C)CCN1Cn2c3ccccc3c3c4c(c5c6ccccc6n(c5c32)C1)C(=O)NC4=N [Compound 8] | – | 160 nM | – | – | 46%
14 | O=C1NC(=O)c2c1c1c3ccccc3n3c1c1c2c2ccccc2n1CN(Cc1ccccc1)C3 [Compound 2] | > 50000 nM | – | – | – | 35%
15 | C[C@@H]1n2c3ccccc3c3c4c(c5c6ccccc6n(c5c32)[C@@H](C)S1(=O)=O)C(=O)NC4=O (relative stereo) [trans-25] | – | 120 nM | – | – | –
16 | N=C1NC(=O)c2c1c1c3ccccc3n3c1c1c2c2ccccc2n1COC3 [Compound 15] | – | 62 nM | – | – | 30%

More lines, main results first:

Row | IC50 [1, 5] | IC50 [1, 6] | IC50 [2] | Structure (SMILES) | Mouse Skin (active/inactive by visual evaluation of blister formation) [3] | inhibition at 45 µg/mL [4]
17 | – | 86 nM | – | CN1Cn2c3ccccc3c3c4c(c5c6ccccc6n(c5c32)C1)C(=O)NC4=O [Compound 6] | – | 66%
18 | – | 90 nM | – | O=C1NC(=O)c2c1c1c3ccccc3n3c1c1c2c2ccccc2n1CN(O)C3 [Compound 3] | – | 48%
19 | – | 24 nM | > 10000 nM | N=C1NC(=O)c2c1c1c3ccccc3n3c1c1c2c2ccccc2n1CSC3 [Compound 17] | – | 53%
20 | – | 145 nM | – | O=C1NC(=O)c2c1c1c3ccccc3n3c1c1c2c2ccccc2n1CNC3 [Compound 4] | – | 86%
21 | – | 19 nM | > 10000 nM | O=C1NC(=O)c2c1c1c3ccccc3n3c1c1c2c2ccccc2n1C[S+]([O-])C3 [Compound 20] | – | –
22 | – | 14 nM | > 10000 nM | O=C1NC(=O)c2c1c1c3ccccc3n3c1c1c2c2ccccc2n1CSC3 [Compound 18] | – | 18%
23 | – | 11 nM | – | O=C1NC(=O)c2c1c1c3ccccc3n3c1c1c2c2ccccc2n1COC3 [Compound 16] | – | 46%
